Laboratory results reported in the supplement of paper PMC10883282.

Key:
Assay in all cases: standardised AUC of viability dose-response curve (72 h) (fraction (0-1)); higher = less growth inhibition (more resistant)
A204 = system: A204
Summary of the method: (§1)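 In 384-well plates, sarcoma cell lines were exposed for 72 h, in triplicate, to 2.5 µl of a 1:3 compound dilution series whose compound-plate concentrations ran from 10 mM to 0.0002 mM. Four-parameter log-logistic models were fitted per drug and cell line to ATPLite viability, scaled 1 (full) to 0 (none). From these fits, a modified drexplorer computeAUC gave the standardised area under the curve in log-dose space. Here 1 marks no response and 0 full response.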

G401 = system: G401
Summary of the method: as §1

HS729 = system: HS729
Summary of the method: as §1

HT1080 = system: HT1080
Summary of the method: as §1

KHOS-240S = system: KHOS-240S
Summary of the method: as §1

KHOS-NP = system: KHOS-NP
Summary of the method: as §1

MES-SA = system: MES-SA
Summary of the method: as §1

RD-ES = system: RD-ES
Summary of the method: as §1

RD = system: RD
Summary of the method: as §1

SK-ES-1 = system: SK-ES-1
Summary of the method: as §1

SK-LMS-1 = system: SK-LMS-1
Summary of the method: as §1

SW1353 = system: SW1353
Summary of the method: as §1

SW684 = system: SW684
Summary of the method: as §1

SW872 = system: SW872
Summary of the method: as §1

SW982 = system: SW982
Summary of the method: as §1

SYO-1 = system: SYO-1
Summary of the method: as §1

VA-ES-BJ = system: VA-ES-BJ
Summary of the method: as §1

| Compound | standardised AUC (A204) | standardised AUC (G401) | standardised AUC (HS729) | standardised AUC (HT1080) | standardised AUC (KHOS-240S) | standardised AUC (KHOS-NP) | standardised AUC (MES-SA) | standardised AUC (RD-ES) | standardised AUC (RD) | standardised AUC (SK-ES-1) | standardised AUC (SK-LMS-1) | standardised AUC (SW1353) | standardised AUC (SW684) | standardised AUC (SW872) | standardised AUC (SW982) | standardised AUC (SYO-1) | standardised AUC (VA-ES-BJ) |
| --- | --- | --- | --- | --- | --- | --- | --- | --- | --- | --- | --- | --- | --- | --- | --- | --- | --- |
| FC(F)(F)c1ccc(CNc2ccc(Cc3c[nH]c4ncc(Cl)cc34)cn2)cn1 [PEXIDARTINIB] | 0.837 | 0.946 | 0.903 | 0.953 | 0.975 | 0.955 | 0.978 | 0.991 | 1 | 0.97 | 0.979 | 0.935 | 0.974 | 0.939 | 1 | 0.861 | 0.976 |
| Cc1cn(-c2cc(NC(=O)c3ccc(C)c(Nc4nccc(-c5cnccn5)n4)c3)cc(C(F)(F)F)c2)cn1 [RADOTINIB] | 0.894 | 0.977 | 0.976 | 0.997 | 0.988 | 0.992 | 1 | 0.996 | 0.992 | 0.999 | 1 | 1 | 1 | 0.967 | 0.995 | 0.929 | 1 |
| CO[C@H]1C[C@@H]2CC[C@@H](C)[C@@](O)(O2)C(=O)C(=O)N2CCCC[C@H]2C(=O)O[C@H]([C@H](C)C[C@@H]2CC[C@@H](O)[C@H](OC)C2)CC(=O)[C@H](C)/C=C(\C)[C@@H](O)[C@@H](OC)C(=O)[C@H](C)C[C@H](C)/C=C/C=C/C=C/1C [RAPAMYCIN] | 0.607 | 0.814 | 0.944 | 0.916 | 0.815 | 0.989 | 0.489 | 0.778 | 0.712 | 0.63 | 0.665 | 0.856 | 0.763 | 0.729 | 0.724 | 0.846 | 0.589 |
| C=CC(=O)Nc1cccc(Nc2nc(Nc3ccc(N4CCN(C(C)=O)CC4)cc3OC)ncc2C(F)(F)F)c1 [ROCILETINIB] | 0.912 | 0.886 | 0.878 | 0.973 | 0.929 | 0.975 | 0.874 | 0.857 | 0.899 | 0.831 | 0.893 | 0.889 | 0.937 | 0.912 | 0.906 | 0.867 | 0.921 |
| CN(C)C[C@@H]1CCn2cc(c3ccccc32)C2=C(C(=O)NC2=O)c2cn(c3ccccc23)CCO1 [RUBOXISTAURIN] | 0.926 | 0.954 | 0.969 | 0.995 | 0.99 | 0.99 | 0.951 | 0.945 | 0.99 | 0.911 | 0.929 | 0.947 | 0.991 | 0.953 | 0.947 | 0.861 | 0.946 |
| CN1CCN(CCOc2cc(OC3CCOCC3)c3c(Nc4c(Cl)ccc5c4OCO5)ncnc3c2)CC1 [SARACATINIB] | 0.906 | 0.918 | 0.849 | 0.981 | 0.884 | 0.951 | 0.943 | 0.955 | 0.871 | 0.931 | 0.908 | 0.865 | 0.977 | 0.858 | 0.821 | 0.851 | 0.938 |
| CNC(=O)c1cc(Oc2ccc(NC(=O)Nc3ccc(Cl)c(C(F)(F)F)c3)cc2)ccn1 [SORAFENIB] | 0.756 | 0.916 | 0.943 | 0.944 | 0.93 | 0.907 | 0.925 | 0.966 | 0.951 | 0.949 | 0.917 | 0.951 | 0.936 | 0.978 | 0.975 | 0.841 | 0.95 |
| CCN(c1cc(-c2ccc(CN3CCOCC3)cc2)cc(C(=O)NCc2c(C)cc(C)[nH]c2=O)c1C)C1CCOCC1 [TAZEMETOSTAT] | 0.998 | 0.989 | 0.946 | 0.988 | 0.971 | 0.963 | 0.976 | 0.985 | 0.997 | 0.96 | 0.977 | 0.973 | 0.998 | 0.986 | 0.985 | 0.971 | 1 |
| Cc1cccc(-c2[nH]c(CNc3ccccc3F)nc2-c2ccc3ncnn3c2)n1 [VACTOSERTIB] | 0.982 | 0.993 | 0.917 | 1 | 0.957 | 0.989 | 0.991 | 0.99 | 0.996 | 0.997 | 0.995 | 0.992 | 0.959 | 1 | 0.995 | 0.911 | 1 |
| C[C@@H]1COC(Nc2ccc3ncnc(Nc4ccc(OCc5nccs5)c(Cl)c4)c3c2)=N1 [VARLITINIB] | 0.918 | 0.953 | 0.955 | 0.974 | 0.975 | 0.992 | 0.954 | 0.989 | 1 | 0.97 | 0.987 | 0.928 | 0.994 | 0.962 | 0.975 | 0.97 | 0.994 |
| CC[C@@H]1C(=O)N(C)c2cnc(Nc3ccc(C(=O)N[C@H]4CC[C@H](N5CCN(CC6CC6)CC5)CC4)cc3OC)nc2N1C(C)C [VOLASERTIB] | 0.647 | 0.653 | 0.766 | 0.601 | 0.534 | 0.642 | 0.555 | 0.504 | 0.533 | 0.52 | 0.635 | 0.723 | 0.693 | 0.578 | 0.547 | 0.453 | 0.531 |
